Assay type in all cases: cell-based, human
Assay [1] has as its system HBECs. Put plainly: TEER (epithelial barrier function) in differentiated HBECs, Ussing chamber. Conditions: for cytokine concentration that increased TEER / epithelial resistance: 7 days incubation; for TEER, normalized to control: day 16. As to the method:
(§1) High individual variation in benzamil-sensitive current and TEER in HBECs. In an Ussing chamber-based experimental design, basal short-circuit current (Isc) and transepithelial electrical resistance (TEER) were recorded in differentiated HBECs from two lung donors that were grown on snapwells at an air-liquid interface for 28 to 35 days. Benzamil, a potent ENaC blocker was used to determine ENaC activity by calculating benzamil-sensitive Isc from changes in Isc that occur 15 minutes after adding 6 μM benzamil to the apical side of cells. […] Therefore, normalized data were used for all subsequent experiments for statistical analyses relating to FIGS. 13-18.
(§2) Basal treatment with cytokines [IL-13 (Abcam), IL-4 (PeproTech), TNF-α, IFN-γ and TGF-β1 (R&D Systems)] diluted in ALI medium started as early as day 14 post differentiation. Individual cytokines or cytokine cocktails were added to the culture medium at the desired concentrations and cells were incubated with the cytokines for a maximum of 16 days. ALI medium containing cytokines was changed every two days. Age-matched HBECs were assigned to the following treatment groups:
(§3) II Time-dependent studies: These studies were done using a concentration that ensured maximum inhibition of benzamil-sensitive Isc and TEER. HBECs were treated with respective cytokines for 2, 4, 6, 8, 10, 12, 14, or 16 days. IFN-γ, TNF-α or TGF-β1 at 1 ng/mL, IL-13 at 20 ng/mL and IL-4 at 2 ng/mL were used.
(§4) III Cytokine cocktails: were prepared using IFN-γ and TNF-α at 0.05, 0.5, 2.5, 5 and 10 ng/mL while TNF-α, IFN-γ and TGF-β1 at 1 ng/mL for each of the cytokines was added to the culture media for 7 days.
(§5) Ussing chamber experiments: Snapwells with differentiated HBECs that were incubated with cytokines or age-matched HBECs without cytokine exposure were mounted in Ussing chambers (Physiologic Instruments), and cells were either bathed in isotonic ringer solution containing 113.8 mM Na^+, 93.6 mM Cl^−, 25 mM HCO3^−, 5.2 mM K^+, 2.4 mM HPO4^−, 0.4 mM H2PO4^−, 1.2 mM Mg^2+, 1.2 mM Ca^2+, and 75 mM mannitol, or in AA-EC01. Glucose (5 mM) was added to the basal side, and chambers were bubbled with 95% O2 and 5% CO2 at 37° C. AA-EC01 contained 8 mM lysine, 8 mM tryptophan, 8 mM arginine, 8 mM glutamine, and 1.2 mM tyrosine, and AANC contained 8 mM leucine, 8 mM cysteine, 8 mM isoleucine, 8 mM aspartic acid and 8 mM glutamate (Ajinomoto), both diluted in an electrolyte solution containing 113.8 mM Na^t, 93.6 mM Cl^−, 25 mM HCO3^−, 5.2 mM K^+, 2.4 mM HPO4^−, 0.4 mM H2PO4^−, 1.2 mM Mg′, 1.2 mM Ca^2+ and 40 mM mannitol at pH 7.4 and 300 mOsm. Cell cultures were allowed to equilibrate in the Ussing chambers for 30 minutes while continuously voltage clamped to 0 mV. Basal short circuit current (Isc) and transepithelial electrical resistance (TEER) were recorded at 30-second intervals, and benzamil-sensitive Isc was calculated from the difference of basal Isc recorded after 30 minutes and Isc measured at 15 minutes after adding 6 μM of benzamil (ThermoFisher) to the apical side.
(§6) Statistical analysis: Results are presented as mean±standard error of mean (SEM). Analyses were performed with OriginPro 2018 software package. For each treatment group, values were tested for normal distribution using the Shapiro-Wilk normality test. […] The values were normalized to controls within the group, and data were pooled for comparison between groups. Kruskal-Wallis test was used for comparing the overall effect of ringer, AA-EC01 and AANC on benzamil-sensitive Isc and TEER, and Mann Whitney U test was used for pairwise comparison within the group and for comparison between basal values for each cytokine at zero ng/mL or day zero with each concentration and time period studied. P<0.05 was considered significant, and NS indicates not significant.

Assay [2] has as its system ENaC. Put plainly: Benzamil-sensitive Isc (ENaC activity) in differentiated HBECs, Ussing chamber. Conditions: for cytokine concentration that decreased benzamil-sensitive Isc: 7 days incubation. As for the experimental part: as §1, §2, §3, §4, §5, §6
Assay [3] deals with ENaC. Put plainly: ENaC current in HBEC after increasing cytokine concentrations for 7 days (FIGS. 9-11). Conditions: for ENaC activity with increasing cytokine concentration: 7 days (FIGS. 9, 11). As for the experimental part: FIG. 9: ENaC Activity in Human Bronchial Epithelial Cells after Exposure to Increasing Concentrations of TNF-α for 7 Days. Human bronchial epithelial cells (HBEC) were treated with different concentrations of TNF-α (0.00005, 0.0005, 0.005, 0.05, 0.5, 5, 50 or 500 ng/mL media) for 7 days.
FIG. 10: ENaC Activity in Human Bronchial Epithelial Cells after Exposure to Increasing Concentrations of IFN-γ for 7 Days. HBEC were treated with IFN-γ (0.00005, 0.0005, 0.005, 0.05, 0.5, 5, 50 or 500 ng/mL media) for 7 days.
FIG. 11: ENaC Activity in Human Bronchial Epithelial Cells after Exposure to Increasing Concentrations of TGF-β1 for 7 Days. HBEC were treated with TGF-β1 (0.00005, 0.0005, 0.005, 0.05, 0.5, 5, 50 or 500 ng/mL media) for 7 days.
In some embodiments, HBECs were treated with different concentrations of TNF-α ranging from 0.00005 ng/mL to 500 ng/mL TNF-α (e.g., 0.00005, 0.0005, 0.005, 0.05, 0.5, 5, 50 or 500 ng/mL TNF-α in media) for 7 days.

Where only a bound is given, the exact number is not on record here.

In the case of “IL-4: Th2 cytokine (PeproTech) added to HBEC culture medium”, the “TEER, normalized to control (maximum inhibition)” value in assay [1] (2 ng/mL IL-4, day 10) amounted to 37.5±2%. Also, the “benzamil-sensitive Isc, normalized to control” value in assay [2] (2 ng/mL IL-4, day 4) was 59.9±9.4%. The “benzamil-sensitive Isc, normalized to control (maximum reduction)” value in assay [2] (2 ng/mL IL-4, day 10) was determined as 8.6±5%.

“TGF-β1: Treg cytokine (R&D Systems) added to HBEC culture medium”: the “ENaC activity with increasing cytokine concentration” value in assay [3] was “concentration-dependent decrease”. In addition, in assay [1] (1 ng/mL cytokine, up to 16 days), the TEER over time entry is on record as “remained unaffected”. Besides, the “cytokine concentration that increased TEER / epithelial resistance” value in assay [1] was not below 5 ng/mL. In addition, the “benzamil-sensitive Isc, normalized to control” value in assay [2] (1 ng/mL cytokine, day 4) came to 64.4±8.3%; in assay [2] (1 ng/mL cytokine, day 16), 20.3±5.8%; in assay [2] (TGF-β1 0.5 ng/mL, 7 days) it was 70.4±2.5%; in assay [2] (TGF-β1 50 ng/mL, 7 days) it was 1.5±0.3%. For the same substance, the “cytokine concentration that decreased benzamil-sensitive Isc” value in assay [2] is not below 0.5 ng/mL.

On to TNF-α, for which, in assay [3], the “ENaC activity with increasing cytokine concentration” value is “concentration-dependent decrease”. The “TEER, normalized to control” value in assay [1] (1 ng/mL cytokine) was determined as 132.6±9.0%. Moreover, the “benzamil-sensitive Isc, normalized to control” value is recorded as 81.2±5.4% in assay [2] (1 ng/mL cytokine, day 4) and 39.2±2.4% in assay [2] (1 ng/mL cytokine, day 16). The “cytokine concentration that decreased benzamil-sensitive Isc” value in assay [2] is recorded as not below 0.05 ng/mL. Also, the “benzamil-sensitive Isc, normalized to control (plateau of reduction)” value in assay [2] (TNF-α around 10 ng/mL, 7 days) was determined as 17.4±3.6%.

As to “IFN-γ: type II IFN family cytokine (R&D Systems) added to HBEC culture medium”, in assay [3] (7 days (FIG. 10)), the “IFN-γ concentration at which ENaC current decreased relative to baseline” value is given as more than 0.05 ng/mL media and the “IFN-γ concentration with significant decrease in ENaC activity” value is recorded as more than 5 ng. For the same substance, the “TEER, normalized to control” value in assay [1] (1 ng/mL cytokine) is recorded as 142.5±12.3%. The “cytokine concentration that increased TEER / epithelial resistance” value in assay [1] is reported as not below 0.5 ng/mL. For the same substance, the “benzamil-sensitive Isc, normalized to control” value in assay [2] (1 ng/mL cytokine, day 16) came to 43.7±7.0%. Also, the “cytokine concentration that decreased benzamil-sensitive Isc” value in assay [2] is recorded as more than 20 ng/mL. The “benzamil-sensitive Isc, of baseline values” in assay [2] (IFN-γ 5×10^−4 ng/mL, 7 days, normalized to control) came out at 161.62±9.7%.

For the origin of these results see patent publication US20230201151A1, “FORMULATIONS AND METHODS FOR TREATING ACUTE RESPIRATORY DISTRESS SYNDROME, ASTHMA, OR ALLERGIC RHINITIS” (UNIVERSITY OF FLORIDA RESEARCH FOUNDATION, INC., priority 2020, published 2023).
